Results taken from patent US6825173B2, “Preparation of fagopyritols and uses therefor” (Cornell Research Foundation, Inc., priority 1997, dated 2004).

Assays:
human fecal microflora = assay: In vitro fermentation of fagopyritol-enriched buckwheat extract by human fecal microflora; format: in vitro ADME; conditions: 40° C.; for concentration of inositols and fagopyritols: anaerobic
Procedure: Fermentation tests were done with fagopyritol-enriched Birkett Mills buckwheat extract that had previously been treated with dry granular baking yeast. Yeast cells were removed by centrifugation (10 minutes at 19K rpm using a Sorvall refrigerated centrifuge) and ultrafiltration (Amicon filtration device, 10, 000 MW cut-off). The fagopyritol water extract was boiled under carbon dioxide to sterilize and remove all other gases.
Anaerobic conditions were maintained during the preparation of fecal inoculum and of all samples by working under streams of carbon dioxide gas. Fermentation bottles were sealed with rubber stoppers and metal caps.
Fagopyritol substrate was prepared first. Then, 1 ml was placed in all bottles except blanks (duplicate samples plus one control and one blank done for 0, 6, 12, and 24 hours). Next, the nutritive medium was prepared. Control bottles received 1 ml of the medium in place of inoculum. The remaining medium was used to dilute fresh feces 1:12, w/v, prepared as described in Barry et al., “In Vitro Fermentation of Neutral Monosaccharides by Ruminal and Human Fecal Microflora,” Acta Vet Scand, 86 (supplement): 93-95 (1989) and Guillon et al., “Characterization of Residual Fibers from Fermentation of Pea and Apple Fibres by Human Fecal Bacteria,” J. Sci. Food Agric., 68:521-529 (1995), which are hereby incorporated by reference. All samples and blanks were inoculated with 1 ml of fecal inoculum by syringe through the rubber stoppers.
A 40° C. water bath was used for the fermentation which was stopped at the specified times by opening bottles to air and immediately freezing.
The samples were prepared for GC analysis after thawing by centrifuging (microfuge, 8000 rpm) once and then again in 10,000 MW cut-off microfuge tubes. The salts present in those samples containing nutritive medium were removed by passing each sample through Amberlite mixed-bed resin, because salts interfere with TMS-derivitization. Two control samples of the original extract were also passed through the resin to insure that fagopyritols were not removed by the treatment.
A small volume of each (750 μL) was dried with 100 μg of internal standard (phenyl α-D-glucopyranoside) in silyation vials under a stream of nitrogen gas; vials were then placed in a desiccator over P205 overnight.
Trimethylsilyl derivitives were prepared by adding 100 μL of 1:1 pyridine:TMS solution and heating at 70° C. for 30 minutes.
Finally, derivitized samples were analyzed on the GC (HP 5890 Series II; DB-1 column; 0.25 mm i.d., 15 m length, 0.25 μm film thickness).

[1] = target: T1, green coffee bean α-D-galactosidase (EC 3.2.1.22) (Coffea arabica, UniProt Q42656); assay: Enzymatic hydrolysis with α-galactosidase; format: biochemical; conditions: for hydrolysis by α-galactosidase (in words): 1.25 units desalted enzyme in 200 μL water at 22° C. (Examples 22, 23), products by GC
T1 construct: desalted green coffee bean α-D-galactosidase (EC 3.2.1.22); purchased Boehringer Mannheim Corporation, Indianapolis, Ind; host or cells: green coffee bean
T1 sequence (Q42656 16-378): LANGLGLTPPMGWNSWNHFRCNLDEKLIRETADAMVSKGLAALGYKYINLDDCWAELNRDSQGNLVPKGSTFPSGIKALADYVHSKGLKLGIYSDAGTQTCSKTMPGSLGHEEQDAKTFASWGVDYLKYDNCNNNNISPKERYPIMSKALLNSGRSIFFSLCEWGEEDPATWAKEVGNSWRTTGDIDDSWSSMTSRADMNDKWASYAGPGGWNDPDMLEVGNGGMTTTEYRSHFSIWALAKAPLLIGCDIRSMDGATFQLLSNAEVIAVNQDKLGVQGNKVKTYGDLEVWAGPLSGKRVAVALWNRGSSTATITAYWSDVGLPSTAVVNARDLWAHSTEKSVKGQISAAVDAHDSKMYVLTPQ
Procedure: Enzymatic Digestion. One ml of green coffee bean α-galactosidase (EC 3.2.1.22) (Boehringer Mannheim Corporation, Indianapolis, Ind.) in 3.2 M ammonium sulfate was dialyzed overnight against 1000 ml of distilled water to remove the ammonium sulfate that interferes with the silylation reaction and causes variable results. […] After 24 h, 0.2 ml of absolute ethanol and 100 μg of internal standard were added. The mixture was heated to 90° C. for 5 min to inactivate the enzyme and centrifuged through a 10,000 Mr cutoff filter. The filtrate was evaporated to dryness in a stream of nitrogen gas, silylated, and analyzed by gas chromatography as above.
(§1) Acid and Enzymic Hydrolysis. […] Enzyme protein was removed by filtration (10,000 MW cut-off filter), samples were dried, and products assayed by GC analysis of trimethylsilyl derivatives. Raffinose and lactose (100 μg) were hydrolyzed only by α- or β-D-galactosidase respectively, confirming that both enzymes were active.
as §1, with “hydrolyzed” for “hydrolyzed only”

[2] = system: bovine liver β-D-galactosidase (EC 3.2.1.23); assay: Enzymatic hydrolysis with β-galactosidase; format: biochemical; conditions: for hydrolysis by β-galactosidase (in words): 0.5 units in 200 μL water at 37° C. for 24 h, products by GC
Procedure: as §1
as §1, with “hydrolyzed” for “hydrolyzed only”

[3] = Controls (nutritive medium in place of fecal inoculum), 0 hrs
[4] = Controls (nutritive medium in place of fecal inoculum), 6 hrs
[5] = Controls (nutritive medium in place of fecal inoculum), 12 hrs
[6] = Samples with human fecal inoculum, 0 hrs
[7] = Samples with human fecal inoculum, 6 hrs
[8] = Samples with human fecal inoculum, 12 hrs

| Compound | concentration of inositols and fagopyritols (human fecal microflora; [3]) | concentration of inositols and fagopyritols (human fecal microflora; [4]) | concentration of inositols and fagopyritols (human fecal microflora; [5]) | concentration of inositols and fagopyritols (human fecal microflora; [6]) | concentration of inositols and fagopyritols (human fecal microflora; [7]) | concentration of inositols and fagopyritols (human fecal microflora; [8]) | hydrolysis by α-galactosidase (in words) [1] | Enzymic hydrolysis by α-D-galactosidase ([1]; Fagopyritol A and B Series) | hydrolysis by β-galactosidase (in words) [2] | Enzymic hydrolysis by β-D-galactosidase ([2]; Fagopyritol A and B Series) | Enzymic hydrolysis by α-D-galactosidase ([1]; Galactinol Series) | Enzymic hydrolysis by β-D-galactosidase ([2]; Galactinol Series) | metabolism by fecal bacteria (in words) (human fecal microflora; fermentation of fagopyritol-enriched extract) |
| --- | --- | --- | --- | --- | --- | --- | --- | --- | --- | --- | --- | --- | --- |
| OC1C(O)C(O)C(O)C(O)C1O [D-chiro-inositol] | 99 µg/750 µL | 102 µg/750 µL | 58 µg/750 µL | 47 µg/750 µL | 0 µg/750 µL | 0 µg/750 µL | – | – | – | – | – | – | – |
| OCC1O[C@@H](O[C@H]2C(O)C(O)[C@H](O)C(O)C2O)C(O)C(O)[C@H]1O (stereo partly drawn) [Fagopyritol A1, O-α-D-galactopyranosyl-(1→3)-D-chiro-inositol] | 88 µg/750 µL | 87 µg/750 µL | 94 µg/750 µL | 106 µg/750 µL | 0 µg/750 µL | 0 µg/750 µL | hydrolyzed | yes | not by β-D-galactosidase | no | – | – | – |
| OCC1O[C@H](OCC2O[C@@H](O[C@H]3C(O)C(O)[C@H](O)C(O)C3O)C(O)C(O)[C@H]2O)C(O)C(O)[C@H]1O (stereo partly drawn) [Fagopyritol A2, O-α-D-galactopyranosyl-(1→6)-O-α-D-galactopyranosyl-(1→3)-D-chiro-inositol] | 56 µg/750 µL | 54 µg/750 µL | 59 µg/750 µL | 54 µg/750 µL | 0 µg/750 µL | 0 µg/750 µL | hydrolyzed | yes | not by P-D-galactosidase | no | – | – | – |
| OCC1O[C@H](OC2C(O)[C@H](O)C(O)C(O)[C@@H]2O)C(O)C(O)[C@H]1O (stereo partly drawn) [Fagopyritol B1, O-α-D-galactopyranosyl-(1→2)-D-chiro-inositol] | 667 µg/750 µL | 636 µg/750 µL | 605 µg/750 µL | 591 µg/750 µL | 0 µg/750 µL | 0 µg/750 µL | hydrolyzed | yes | not by β-D-galactosidase | no | – | – | – |
| OCC1O[C@H](OCC2O[C@H](OC3C(O)[C@H](O)C(O)C(O)[C@@H]3O)C(O)C(O)[C@H]2O)C(O)C(O)[C@H]1O (stereo partly drawn) [Fagopyritol B2, O-α-D-galactopyranosyl-(1→6)-O-α-D-galactopyranosyl-(1→2)-D-chiro-inositol] | 83 µg/750 µL | 72 µg/750 µL | 66 µg/750 µL | 65 µg/750 µL | 0 µg/750 µL | 0 µg/750 µL | hydrolyzed | yes | not by P-D-galactosidase | no | – | – | – |
| OC[C@H]1O[C@H](OC2[C@@H](O)[C@H](O)C(O)[C@H](O)[C@@H]2O)[C@H](O)[C@@H](O)[C@H]1O (stereo partly drawn) [Galactinol (gt1)] | – | – | – | – | – | – | – | – | – | – | yes | no | – |
| OC[C@H]1O[C@H](OC[C@H]2O[C@H](O[C@]3(CO)O[C@H](CO)[C@@H](O)[C@@H]3O)[C@H](O)[C@@H](O)[C@@H]2O)[C@H](O)[C@@H](O)[C@H]1O [Raffinose, O-α-D-galactopyranosyl-(1→6)-α-D-glucopyranosyl-(1→2)-β-D-fructofuranoside, reference compound] | – | – | – | – | – | – | hydrolyzed | – | – | – | – | – | – |
| OCC1OC(OCC2OC(OCC3OC(OC4C(O)C(O)C(O)C(O)C4O)C(O)C(O)C3O)C(O)C(O)C2O)C(O)C(O)C1O [TGMI, O-α-D-galactopyranosyl-(1→6)-O-α-D-galactopyranosyl-(1→6)-O-α-D-galactopyranosyl-(1→3)-D-myo-inositol] | – | – | – | – | – | – | completely hydrolyzed | – | – | – | – | – | – |
| OC[C@H]1O[C@H](OC[C@H]2O[C@H](O[C@@H]3[C@@H](O)[C@H](O)[C@@H](O)[C@H](O)[C@@H]3O)[C@H](O)[C@@H](O)[C@H]2O)[C@H](O)[C@@H](O)[C@H]1O [digalactosyl myo-inositol, O-α-D-galactopyranosyl-(1→6)-O-α-D-galactopyranosyl-(1→3)-D-myo-inositol] | – | – | – | – | – | – | completely hydrolyzed | – | not by β-galactosidase | – | – | – | – |
| OC[C@H]1O[C@@H](O[C@H]2[C@H](O)[C@@H](O)C(O)O[C@@H]2CO)[C@H](O)[C@@H](O)[C@H]1O (stereo partly drawn) [lactose, reference compound] | – | – | – | – | – | – | – | – | hydrolyzed | – | – | – | – |
| O[C@H]1[C@H](O)[C@@H](O)[C@H](O)[C@@H](O)[C@H]1O [myo-inositol] | 45 µg/750 µL | 48 µg/750 µL | 26 µg/750 µL | 20 µg/750 µL | 0 µg/750 µL | 0 µg/750 µL | – | – | – | – | – | – | – |
| OC[C@H]1O[C@H](O[C@H]2O[C@H](CO)[C@@H](O)[C@H](O)[C@H]2O)[C@H](O)[C@@H](O)[C@@H]1O [trehalose, O-α-D-glucopyranosyl-(1-1′)-O-α-D-glucoside] | – | – | – | – | – | – | – | – | – | – | – | – | metabolized |
| O-α-D-galactopyranosyl-(1→6)-O-α-D-galactopyranosyl-(1→6)-O-α-D-galactopyranosyl-(1→2)-D-chiro-inositol [Fagopyritol B3] | – | – | – | – | – | – | completely hydrolyzed | yes | – | – | – | – | – |
| O-α-D-galactopyranosyl-(1→6)-O-α-D-galactopyranosyl-(1→6)-O-α-D-galactopyranosyl-(1→3)-D-chiro-inositol [Fagopyritol A3] | 21 µg/750 µL | 20 µg/750 µL | 26 µg/750 µL | 48 µg/750 µL | 0 µg/750 µL | 0 µg/750 µL | hydrolyzed | yes | not by P-D-galactosidase | no | – | – | – |
